“Also recorded” adds a separate entry of the source. Peptide text beside a SMILES is read from it.
How the values were obtained:
[1] = tested on: normal human bronchial epithelial cells; assay: Crystal violet staining of viable normal cells after peptide treatment; format: cell-based; details: 50 μM or various concentrations; 72 hours
Procedure: After 72 hours of peptide treatment, the number of viable cells was visualized by using crystal violet staining. A representative of three independent experiments.
(§1) After 72 hours of peptide treatment, the number of viable cells was visualized by using crystal violet staining. A representative example of three independent experiments is shown. […] Cells were incubated with various concentrations of MPS peptide for 72 hours and then subjected to MTS assays. 200 μM polyamine and aspartates-substituted mutant (Mut) peptide served as peptide controls (n=3).

[2] = Tolerability upon systemic administration; format: in vivo; details: systemic administration in mice
[3] = tested on: cancer cell lines (H1975, HCT116, H1650, CL1-5 and others); assay: MTS cell viability assay, cancer cell lines; format: cell-based; details: H1975, HCT116, H1650 and CL1-5 cells; 72 hours; listed as MPS peptide
Procedure: Top, cells were incubated with various concentrations of MPS peptide for 72 hours and then subjected to a MTS assay for analysis of cell viability. Polyamine served as a peptide control. *, P<0.05 compared with untreated cells. The HBE1 cell line is a normal bronchial epithelial cell line. Bottom, ethnicities of the cancer cell lines used for MTS assay.
FIGS. 13A-13G show MPS peptide suppresses cancer cell proliferation and also induces apoptosis in these cells through direct downregulation of MARCKS activation. (A) Determination of MARCKS phosphorylation levels after 24 hours of MPS peptide treatment. Lysates from 1-100 μM MPS peptide-treated H1975 cells were subjected to western blot analysis. (B) Levels of PIP3 in drug resistant cancer cell lines after MPS peptide treatment. Cells were treated with 10, 50 or 100 μM MPS peptide. After 24 hours of treatment, PIP3 lipids were extracted from these cells and analyzed by a PIP3 ELISA kit. *P<0.05 compared with untreated cells. […] (E) Cells were treated with the indicated concentrations of MPS peptide and colonies were counted after 10 days of treatment using crystal violet staining (F) MPS treatment augments cell death. […] The percentages of apoptotic cells were quantified by flow cytometry (top), and presented as mean±SD of three experiments (bottom). *, P<0.05 versus untreated cells (Con). […]

[4] = tested on: lung cancer cells with low phospho-MARCKS levels; assay: MTS cell viability, lung cancer cell lines with low phospho-MARCKS levels; format: cell-based, human; details: various concentrations, 72 hours
Procedure: as §1

[5] = tested on: A549 cells; assay: MTS drug sensitivity of MARCKS-knockdown cells; format: cell-based, human; details: stable MARCKS-knockdown A549 cells versus control shRNA; 72 hours
Procedure: (§2) FIGS. 10A and 10B show implication of phospho-MARCKS levels in drug resistance. (A) Effects of ectopic V5-tagged PSD-mutant or wild type MARCKS expression on CL1-0 cells in response to various drug treatments. (B) Effects of MARCKS shRNA silencing on A549 cells in response to various drug treatments. Western blot analyses were carried out to determine phospho-MARCKS and total MARCKS levels in these stable cells with appropriate antibodies. The cells were subjected to various doses of cisplatin, paclitaxel, erlotinib or dasatinib for treatment, as indicated. After 72 hours of treatment, cell viability was determinate by MTS assays. Data shown as mean±SD. *P<0.05 versus mock (A; n=3); *P<0.05 versus control shRNA (B; n=4).
For enforced expression of V5-tagged MARCKS in CL1-0, lung cancer cells were transfected with pcDNA3.1-MARCKS, pcDNA3.1-S159/163A MARCKS or pcDNA3.1 vector using lipofectamine reagent (Invitrogen), according to the manufacturer's protocol. After culturing in medium containing with 400 μg/mL of G418 (Invitrogen) for 2-3 weeks, individual clones were isolated. Clones that expressed the MARCKS cDNA coding region were maintained in medium containing 200 μg/mL of G418 and used for further investigation. Applicants also established a MARCKS-mixed knockdown stable A549 transfectant. […]

[6] = tested on: CL1-0 cells; assay: MTS cell viability, drug treatment of mock transfected cells; format: cell-based, human; details: control mock transfected CL1-0 cells; increasing concentrations, 72 hours
Procedure: as §2
To determine if the MARCKS phosphorylation step can serve as a therapeutic target, Applicants evaluated whether the status of MARCKS PSD phosphorylation could alter the sensitivity of NSCLC cells to chemotherapeutic agents and tyrosine kinase inhibitors (TKIs). The V5-tagged wild-type and PSD-mutated (S159/163A) MARCKS constructs were generated and transfected into low MARCKS-expressing CL1-0 cells (FIG. 16A) (Chen, C. H. et al. (2013) Oncogene) for establishing stable clones. These stable cell lines were exposed to increasing concentrations of cisplatin, paclitaxel, erlotinib or dasatinib for 72 hours. […] These toxicities were repressed by enforced expression of V5-tagged wild type MARCKS, but not by overexpression of the S159/163A mutant.

[7] = tested on: H1650 and H1975 cells; details: 0.5 μM erlotinib alone; 48 hours
Procedure: The combinatorial effect of MPS peptide with erlotinib on cancer cell lines. Two chemoresistant lung cancer cells, H1650 (Left) and H1975 (Right) cells were respectively co-treated with various dosages of erlotinib and 50 μM MPS peptide. After 48 hours, cell viability was determinate by MTS assay. *, P<0.05.
Two erlotinib resistant cell lines, H1975 (left) and H1650 (right), were co-treated with various dosages of erlotinib and 50 μM MPS peptide. After 48 hours, cell viability was determined by MTS assay. *, P<0.05.
Cells were seeded onto 96-well plates at a density of 5-10×10^3 cells per well and cultured for the indicated treatment. Cell viability was evaluated using a MTS assay kit (Promega, Madison, Wis.). Twenty microliters of the combined MTS/PMS solution was added into each well, incubated for 3 hours at 37° C., and the absorbance was measured at 490 nm by using an ELISA reader.

[8] = tested on: H1975 cells; assay: Subcutaneous H1975 xenograft, peptide treatment; format: in vivo, nude mice; details: i.p., 28 mg/kg every three days for 7 injections
Procedure: FIGS. 14A-14F show suppressive effects of MPS peptide on cancer growth and metastasis in vivo. (A-C) Suppression of tumorigenesis by MPS peptide. Nude mice bearing subcutaneous tumors were treated for 21 days with intraperitoneal injections of PBS, Mut or MPS peptide at the dosage of 28 mg/kg/3 days. Tumor appearance and volumes were measured and data was presented as mean±SD (n=5, A). A representative photo of primary tumors from subcutaneous tissue of nude mice was shown (B, left). The tumor weights were average values from five mice per group and data were shown as mean±SE (B, right). * P<0.05 as compared with PBS group. […] Top, a representative photo of primary tumors from subcutaneous tissue of nude mice. Bottom, tumor weights are average values from six mice per group. Data were shown as mean±SE. *P<0.01 as compared to PBS-treated group. (E) Inhibition of lung cancer metastasis by MPS peptide. Dissociated PC9 cells were orthotopically injected into the left lobe of the mouse lung. […] (F) Quantification of the average pulmonary metastasis nodules from mice with injected cancer cells and treated with […] or MPS peptide as described (*P<0.05 versus PBS).
To determine the anti-cancer effect of the MPS peptide in vivo, H1975 cells were injected subcutaneously into nude mice. […] After treatment for 21 days, the animals were sacrificed to evaluated tumor weights.

[9] = tested on: MARCKS phosphorylation (Ser159/163); assay: Western blot of MARCKS phosphorylation in peptide-treated cells; format: cell-based, human; details: 100 μM peptide, 24 hours, H1650 or H1975 cells
Procedure: The levels of MARCKS phosphorylation in chemoresistant cancer cell lines after 24 hours of MPS or mutant (Mut) peptide treatment. Lysates form 100 μM MPS-or Mut peptide-treated H1650 or H1975cells were subjected to immunoblotting. The sequences of MARCKS MPS peptide consisted of amino acids 152 to 176 from the wild-type protein (SEQ ID NO: 9). The sequences of mutated MPS peptide (Mut) (SEQ ID NO: 14) had the replacement of serine residues (S) by aspartate (D) and are unable to be recognized by PKC. The underline represents the PIP2 binding site.
FIGS. 13A-13G show MPS peptide suppresses cancer cell proliferation and also induces apoptosis in these cells through direct downregulation of MARCKS activation. (A) Determination of MARCKS phosphorylation levels after 24 hours of MPS peptide treatment. Lysates from 1-100 μM MPS peptide-treated H1975 cells were subjected to western blot analysis. (B) Levels of PIP3 in drug resistant cancer cell lines after MPS peptide treatment. Cells were treated with 10, 50 or 100 μM MPS peptide. After 24 hours of treatment, PIP3 lipids were extracted from these cells and analyzed by a PIP3 ELISA kit. *P<0.05 compared with untreated cells. (C) Downregulation of AKT phosphorylation by MPS peptide treatment, but not by Mut peptide. Cells were treated with 100 μM MPS or Mut peptide for 24 hours. Lysates were immunoblotted with the indicated antibodies. (D) Cell viability analysis of six cancer cell lines and human bronchial epithelial cells (HBE1) upon MPS treatment. Cells were incubated with various concentrations of MPS peptide for 72 hours and then subjected to MTS assays. Polylysine served as a peptide control. n=4, *P<0.05 compared with untreated cells (Con). (E) Cells were treated with the indicated concentrations of MPS peptide and colonies were counted after 10 days of treatment using crystal violet staining (F) MPS treatment augments cell death. […] The percentages of apoptotic cells were quantified by flow cytometry (top), and presented as mean±SD of three experiments (bottom). *, P<0.05 versus untreated cells (Con). […]

## CC(C)C[C@H](NC(=O)[C@H](CCCCN)NC(=O)[C@H](Cc1ccccc1)NC(=O)[C@H](CO)NC(=O)[C@H](CCCCN)NC(=O)[C@H](CCCCN)NC(=O)[C@H](Cc1ccccc1)NC(=O)[C@H](CO)NC(=O)[C@H](Cc1ccccc1)NC(=O)[C@H](CCCNC(=N)N)NC(=O)[C@H](CCCCN)NC(=O)[C@H](CCCCN)NC(=O)[C@H](CCCCN)NC(=O)[C@H](CCCCN)NC(=O)[C@@H](N)CCCCN)C(=O)N[C@@H](CO)C(=O)NCC(=O)N[C@@H](Cc1ccccc1)C(=O)N[C@@H](CO)C(=O)N[C@@H](Cc1ccccc1)C(=O)N[C@@H](CCCCN)C(=O)N[C@@H](CCCCN)C(=O)N[C@@H](CC(N)=O)C(=O)N[C@@H](CCCCN)C(=O)N[C@@H](CCCCN)C(=O)O [MPS] (H-KKKKKRFSFKKSFKLSGFSFKKNKK-OH)
[1]
  Cytotoxicity in normal human bronchial epithelial cells: did not observe any cytotoxicity
[2]
  Tolerability: well tolerated upon systemic administration in mice
[3]
  Cytotoxic / anti-proliferative effect on TKIs resistant cancer cells: cytotoxicity effect of MPS peptide is obvious; also recorded: obvious anti-proliferative effect
[4]
  Cytotoxicity in lung cancer cells with low phospho-MARCKS levels: did not observe any cytotoxicity

## 5′-GAGCGCTTCTCCTTCAAGAA-3′ (expressed or natural sequence) [MARCKS shRNA-c, common MARCKS-specific short hairpin RNA]
[5]
  Sensitivity to cisplatin, paclitaxel, erlotinib, dasatinib: enhanced sensitivity to these drugs

## N.N.[Cl][Pt][Cl] [cisplatin]
[6]
  Cell viability: dose-dependent decrease of cell viability

## C#Cc1cccc(Nc2ncnc3cc(OCCOC)c(OCCOC)cc23)c1 [erlotinib]
[7]
  Cell viability compared to untreated cells: no significant decrease in cell viability
[6]
  Cell viability: dose-dependent decrease of cell viability

## KKKKKRFDFKKDFKLDGFDFKKNKK [Mut, aspartates-substituted mutant MPS peptide used as control]
[8]
  Tumor size: continuous growth
[9]
  Suppression of p-MARCKS: no suppression
[9]; listed as Mut peptide
  Suppression of p-MARCKS: not in Mut peptide-treated cells

## CC(=O)O[C@H]1C(=O)[C@@]2(C)[C@H]([C@H](OC(=O)c3ccccc3)[C@]3(O)C[C@H](OC(=O)[C@H](O)[C@@H](NC(=O)c4ccccc4)c4ccccc4)C(C)=C1C3(C)C)[C@]1(OC(C)=O)CO[C@@H]1C[C@@H]2O [paclitaxel]
[6]
  Cell viability: dose-dependent decrease of cell viability

Reference: patent US10189881B2, “MPS peptides and use thereof” (The Regents of the University of California, priority 2013, dated 2019)
